Several values for one entry are separate records, joined by “and”; a condition that tells them apart may be missing. Equal values may be shown once. Read-outs that look alike come from different tables or passages of the source.
Columns and labels:
[1] = tested on: planktonic P. aeruginosa PA 60-65 cultures; assay: CFU assay of planktonic P. aeruginosa PA 60-65 cultures; assay type: cell-based, Pseudomonas aeruginosa; settings: amikacin 24 h (16-64 μg/mL)
Description: (§1) For planktonic bacteria, broth cultures of SA5120 in TSB and PA 60-65 in BHI were grown for 16-18 h at 37° C. on a shaker at 250 rpm. The cultures were diluted to an OD600 of 0.1 using TSB for SA5120 or BHI for PA 60-65 and incubated at 37° C. for ˜1.5 h to reach an OD600 of 0.3. Samples were treated with antibiotics in triplicate in 5-mL tubes at 37° C. on a shaker at 250 rpm for 24 h, after which 1 mL of culture from each tube was transferred into a fresh tube and centrifuged to pellet the cells. The cell pellets were washed twice in PBS, re-suspended in 1 mL of PBS, serially diluted in PBS, and plated in triplicate on TSA plates. The plates were incubated overnight at 37° C., and the resulting colonies were enumerated and used to calculate CFUs/mL.

[2] = tested on: P. aeruginosa PA 60-65 biofilms; assay: CFU assay of P. aeruginosa PA 60-65 biofilms; assay type: cell-based, Pseudomonas aeruginosa; settings: for reduction in P. aeruginosa biofilm viability (CFU): 24 h
Description: (§2) Two MDR clinical wound isolates, namely, methicillin-resistant S. aureus (MRSA) SA5120 and P. aeruginosa PA 60-65, were received as gifts from a repository at the U.S. Army Institute of Surgical Research (JBSA-Fort Sam Houston, Tex.). Biofilms were established on 5-mm glass discs or in 96-well half-area glass-bottom plates that had been pre-treated for 24 h with 1 mg/mL of fibrinogen. Overnight cultures of SA5120 in tryptic soy broth (TSB) were diluted to an optical density at 600 nm (OD600) of 0.1 using TSB supplemented with 10% human plasma, added to empty wells of a 96-well glass-bottom culture plate or to wells containing 5-mm glass discs, and allowed to grow into biofilms for 24 h at 37° C. under static conditions. For PA 60-65, overnight cultures in brain heart infusion broth (BHI) were diluted 20-fold using 20% BHI in phosphate-buffered saline (PBS) supplemented with 0.2% glucose and 0.4% NaCl and grown to an OD600 of 0.5 at 37° C. with shaking at 250 rpm. The bacterial suspension was diluted to an OD600 of 0.01 in PBS, and 20 μL of inoculant was spotted onto 5-mm glass discs placed in 6-well tissue culture plates. Samples were incubated at room temperature for 2 h to allow cell attachment, rinsed in PBS, and then cultured in 20% BHI/0.2% glucose/0.4% NaCl in PBS for 72 h at 37° C. with shaking at 140 rpm. Biofilms were rinsed in PBS and transferred into 96-well glass-bottom plates for subsequent treatment.
(§3) Biofilms grown on glass discs were pre-treated with tGNPs or non-targeted GNPs at 70 μg/mL in PBS for 2 h (SA5120) or 1 h (PA 60-65). The 1-h pre-treatment period for PA 60-65 was selected based upon results from comparison of biofilm dispersion caused by various tGNP incubation times used in combination with laser irradiation (FIG. 10). […] After treatment, samples were analyzed using confocal microscopy, CFU assays, or scanning electron microscopy (SEM).
Biofilms on glass discs were pre-treated with tGNPs at 70 μg/mL in PBS for 2 h (SA5120) or 1 h (PA 60-65). […] Samples were incubated for 24 h at 37° C. and then analyzed using CFU assays or SEM. […]

[3] = tested on: planktonic MRSA SA5120 cultures; assay: CFU assay of planktonic MRSA SA5120 cultures; assay type: cell-based, Staphylococcus aureus; settings: for reduction in viability of planktonic MRSA cultures (CFU): antibiotic alone, 24 h (vancomycin 100 μg/mL)
Description: as §1, with “Samples were treated with antibiotics in triplicate in 5-mL tubes at 37° C. on a shaker at 250 rpm for 24 h, after which 1 mL of culture from each tube was transferred into a fresh tube and centrifuged to pellet the cells.” left out

MRSA SA5120 biofilms = assay type: cell-based, Staphylococcus aureus
Description: as §2
MRSA biofilms in 96-well glass-bottom plates or on 5-mm glass discs were pre-treated with increasing concentrations of tGNPs from 0-100 μg/mL in PBS for 2 h. This 2-h treatment duration was selected based upon results from comparison of the extent of biofilm dispersion caused by different tGNP incubation periods used in combination with laser irradiation (FIG. 9). Following the tGNP pre-treatment, unattached tGNPs were washed away using PBS, and 40 μL of PBS was added to the wells. Biofilms were then irradiated with increasing numbers of laser pulses from 0-100 pulses at 532 nm and a fluence of ˜1.0 J/cm^2 using an Nd:YAG laser system (8-ns pulse, 1 Hz; Quantel, Bozeman, Mont.) and an automated XY-gantry sample positioning system operated through LabVIEW software (National Instruments, Austin, Tex.). After exposure, samples were analyzed using confocal microscopy or colony forming unit (CFU) assays.
as §3, with “10). Following the tGNP pre-treatment, samples were rinsed using PBS, and 40 μL of PBS was added to each well. Biofilms were then exposed to 50 laser pulses at 532 nm or sham exposed as described in Supplementary Materials. Biofilms treated with 50 laser pulses alone or PBS alone (controls) were also included.” for “10).”
Biofilms on glass discs were pre-treated with tGNPs at 70 μg/mL in PBS for 2 h (SA5120) or 1 h (PA 60-65). Samples were rinsed with PBS, 40 μL of PBS was added to each well, and biofilms were then exposed to 50 laser pulses at 532 nm or sham exposed. Biofilms treated with 50 laser pulses alone or PBS alone were also included. […]

[4] = tested on: Staphylococcus epidermidis biofilm; settings: ns-pulsed laser non-thermal shockwaves combined with 24-h gentamicin treatment; cited from earlier work
[5] = GNP-targeted laser therapy followed by 24-h antibiotic treatment at 100 μg/mL

## NCC[C@H](O)C(=O)N[C@@H]1C[C@H](N)[C@@H](O[C@H]2O[C@H](CN)[C@@H](O)[C@H](O)[C@H]2O)[C@H](O)[C@H]1O[C@H]1O[C@H](CO)[C@@H](O)[C@H](N)[C@H]1O [amikacin]
[1]
  reduction in viability of planktonic P. aeruginosa cultures (CFU): ~4 log
[2]; GNP-targeted laser therapy in combination with 8 μg/mL amikacin
  reduction in P. aeruginosa biofilm viability (CFU): 5 log
[2]; P. aeruginosa biofilms, with GNP-targeted laser therapy
  effect of increasing amikacin from 8 to 16 μg/mL in the combination therapy: did not further reduce cell viability
[2]; amikacin alone, 8 μg/mL
  reduction in P. aeruginosa biofilm viability (CFU): ~1 log

## CN[C@H](CC(C)C)C(=O)N[C@H]1C(=O)N[C@@H](CC(N)=O)C(=O)N[C@H]2C(=O)N[C@H]3C(=O)N[C@H](C(=O)N[C@H](C(=O)O)c4cc(O)cc(O)c4-c4cc3ccc4O)[C@H](O)c3ccc(c(Cl)c3)Oc3cc2cc(c3O[C@@H]2O[C@H](CO)[C@@H](O)[C@H](O)[C@H]2O[C@H]2C[C@](C)(N)[C@H](O)[C@H](C)O2)Oc2ccc(cc2Cl)[C@H]1O [vancomycin, Vancomycin]
[3]
  reduction in viability of planktonic MRSA cultures (CFU): 4 log and ~3 log
MRSA SA5120 biofilms; 24-h vancomycin at 100 or 1000 μg/mL
  effect of GNP-targeted laser therapy on antibacterial activity of vancomycin against MRSA biofilms: enhanced the antibacterial activity
MRSA SA5120 biofilms; [5]
  reduction in MRSA biofilm viability (CFU): 2 log

## gentamicin
[3]
  reduction in viability of planktonic MRSA cultures (CFU): ~4 log
MRSA SA5120 biofilms; [5]
  reduction in MRSA biofilm viability (CFU): 4 log
MRSA SA5120 biofilms; GNP-targeted laser therapy followed by 24-h gentamicin at 100 μg/mL
  reduction in viable bacteria in MRSA biofilms: 99.99%
MRSA SA5120 biofilms; antibiotic alone, 100 μg/mL, 24 h
  reduction in MRSA biofilm viability (CFU): 1 log
[4]
  reduction in Staphylococcus epidermidis biofilm viability: 1 log

B1: papain: enzyme used to loosen S. aureus biofilms prior to CFU assay (protein, UniProt P00784 134-345, looked up)
Papain: IPEYVDWRQKGAVTPVKNQGSCGSCWAFSAVVTIEGIIKIRTGNLNEYSEQELLDCDRRSYGCNGGYPWSALQLVAQYGIHYRNTYPYEGVQRYCRSREKGPYAAKTDGVRQVQPYNEGALLYSIANQPVSVVLEAAGKDFQLYRGGIFVGPCGNKVDHAVAAVGYGPNYILIKNSWGTGWGENGYIRIKRGTGNSYGVCGLYTSSFYPVKN
[3]; 100 μg/mL papain, 2 or 4 h at 37° C.
  viability of planktonic MRSA cultures: no reduction in cell viability
